# Assay: Absorption enhancing effect of co-administered diltiazem hydrochloride on plasma drug concentration after oral administration (Experiment 1)
# Format: in vivo
# Details: male beagle dogs fasted for 24 hours
# Method: Male beagle dogs (body weight: 12 to 14 kg; one group: 3 to 8 beagle dogs) fasted for 24 hours were used in each groups. A drug having an absolute bioavailability of not more than 20 % and diltiazem hydrochloride were administered orally to the beagle dogs. After one week intervals, the drug only was administered orally to the same beagle dogs. The plasma drug concentration was examined at intervals by TCL densito metry if the drug was timepidium bromide; or by high-peformance liquid chromatography if the drug was tipepidine hibenzate or carbazochrome sodium sulfate. Based on the results obtained above, the absorption enhancing effect of diltiazem hydrochloride was calculated by the following formula; [formula]
smiles,measurement,setting,value
"COC1CC(=C(c2cccs2)c2cccs2)C[N+](C)(C)C1 (stereo not drawn) [Timepidium bromide, 1,1-dimethyl-5-methoxy-3-(dithien-2-yl-methylene)-piperidinium halide]",Absorption enhancing effect,"drug 300 mg with diltiazem hydrochloride 30 mg versus drug only, plasma drug concentration by TLC densitometry",2.3
"CN1C2=CC(=O)C(=NNC(N)=O)C=C2CC1S(=O)(=O)O (stereo not drawn) [Carbazochrome sodium sulfonate, 1-methyl-5-semicarbazono-6-oxo-2,3,5,6-tetrahydroindole-2-sulfonic acid]",Absorption enhancing effect,"drug 100 mg with diltiazem hydrochloride 60 mg versus drug only, plasma drug concentration by high-performance liquid chromatography",1.9
"CN1CCCC(=C(c2cccs2)c2cccs2)C1 [Tipepidine hibenzate, 3-(di-2-thienylmethylene)-1-methylpiperidine]",Absorption enhancing effect,"drug 50 mg with diltiazem hydrochloride 60 mg versus drug only, plasma drug concentration by high-performance liquid chromatography",2.1
